The values below come from patent US20160206633A1, “dhS1P AND USE OF SAME AS AN ANTICANCER THERAPEUTIC AND IMMUNOMODULATOR” (Penn State Research Foundation, Inc., priority 2013, published 2016).

Data set [1] concerns sphingolipids in tumor and serum. Description: Lipidomics (LC-MS3) of sphingolipids in tumors and serum of treated tumor-bearing mice. In kind it is in vivo. Conditions: generally. On the procedure:
To explore how PhotoImmunoNanoTherapy could be regulating the immune system, an analysis of the “sphingolipidome” was studied in tumors and serum collected from treated tumor-bearing mice. As PhotoImmunoNanoTherapy modulated the immune system, and was efficacious in both athymic nude mice and BALB/cJ mice, in depth “sphingolipidomic” studies were performed in athymic nude mice bearing MDA-MB-231 tumors to focus more precisely on mediation of T-cell-independent immunity as well as BALB/cJ mice bearing 410.4 tumors (FIG. 5A-F). […] Intriguingly, an increase in tumor S1P was observed as a function of PhotoImmunoNanoTherapy in both models (FIG. 5D), as well as an increase in the precursor sphingosine in the athymic nude mouse model (MDA-MB-231 tumor) (FIG. 5C). […] Of particular interest, the mass levels of phosphorylated sphingolipid species were much higher in serum than in tumor tissue possibly reflective of a release of phosphorylated sphingolipids in response to PhotoImmunoNanoTherapy. Intriguingly, the increase in the amount of dhS1P was more dramatic than the increase in S1P. In the MDA-MB-231, BxPC-3, and SAOS-2-LM7 models there were a 65%, 79%, and 43% increase in dhS1P, respectively, and these compared with respective increases in S1P of only 29%, 27%, and 10%. […]

The subject of data set [2] is splenic IMCs (Gr-1+CD11b+, MDSCs) from MDA-MB-231 tumor-bearing athymic nude mice. The experiment in a line: Isolated IMCs/MDSCs exposed in culture to dhS1P or S1P, multicolor flow cytometry. In kind it is cell-based. The note with it: 5 μM, 24-hour culture. On the procedure:
(§1) (A) Splenic IMCs (Gr-1+CD11b+, also defined as MDSCs: myeloid-derived suppressor cells) were isolated from MDA-MB-231 tumor-bearing athymic nude mice and exposed to BSA, S1P (5 μM), or dhS1P (5 μM). Following 24-hour culture incubation, cells were labeled with specific antibodies and analyzed by multicolor flow cytometry (red: IMCs; blue: possible B-cells). (B) Splenic IMCs were isolated from MDA-MB-231 tumor-bearing athymic nude mice and cultured (5×10^4 cells/mL) in GEMM-supportive semi-solid media with BSA, S1P (5 μM), or dhS1P (5 μM). GEMM colonies (multipotent myeloid progenitor cells) were visualized and counted after 3 weeks of culture. ANOVA, *p<0.01 compared to no treatment or BSA-treatment, ***p<0.001 compared to S1P-treatment, n≧3. (C) Splenic hematopoietic progenitors (Lineage-Sca-1+CD117+) were isolated from MDA-MB-231 tumor-bearing athymic nude mice and exposed to BSA, S1P (5 μM), or dhS1P (5 μM). Following 24-hour culture incubation, cells were labeled with specific antibodies and analyzed by multicolor flow cytometry.
The effect of dhS1P was further investigated at the level of MDSC-like cells, which were reduced as a function of treatment. The effects of dhS1P were directly compared with those of S1P as to delineate a difference in their physiological roles. Tumor-expanded IMCs/MDSCs were isolated and exposed in culture to either dhS1P or S1P. […]
On the technique in general: In flow cytometry, cells or beads pass a laser one at a time.

Data set [3] has as its system splenic hematopoietic progenitors (Lineage-Sca-1+CD117+). The experiment in a line: Isolated splenic hematopoietic progenitors exposed to dhS1P, multicolor flow cytometry. Conditions: 5 μM, 24-hour culture. The class given is cell-based, athymic nude mice. The method, then: as §1
Splenocytes were harvested from tumor-bearing mice by mechanical disruption in red blood cell lysis buffer. Splenocytes were washed, and resuspended in PBS with Mouse BD Fc Block (1 μg per 1×10^6 splenocytes), and incubated for 15 minutes at 4° C. For IMC isolation, antibodies targeting Gr-1 (FITC) and CD11b (PE-Cy7) were added. […]

In data set [4] the test system is Gr-1+CD11b+ MDSC-like cells from MaFIA mice. Description: Lineage tracing: MDSC-like cells from tumor-bearing MaFIA mice exposed to dhS1P, flow cytometry. The class given is cell-based, MaFIA mice (C57BL/6J background). Also on record: dose or concentration left out as unconfirmed. From the text: Gr-1+CD1 b+MDSC-like cells were isolated by high-speed cell sorting (85-95% purity) from the splenocytes of tumor-bearing MaFIA (Macrophage Fas-Induced Apoptosis) mice. These mice are on the C57BL/6J background and contain a transgene expressing both an inducible apoptosis feature as well as EGFP (enhanced green fluorescent protein). This transgene is expressed from the Csfr1 promoter (CD115), which restricts expression of the transgene to the myeloid lineage. Isolated MDSC-like cells were exposed to dhS1P ([…]) for 24 hours, and flow cytometry was performed to confirm both the disappearance of MDSC-like cells (Gr-1+CD11b+), and the appearance of a lymphocyte population (CD19+CD45R B220+). Lineage tracing using the EGFP feature of the transgene verified that dhS1P-induced lymphocytes (blue population) are EGFP negative and therefore not of myeloid-origin. This is in direct contrast with the EGFP positive MDSC-like cells (red population).

As for `CCCCCCCCCCCCCCC[C@@H](O)[C@@H](N)COP(=O)(O)O` [dhS1P, dihydrosphingosine-1-phosphate], the “Serum levels measured in the experiments” value in data set [1] is “around 0.005 mg/kg”. Besides, the “Population of cells displaying CD19 and CD45R B220 in isolated IMC culture” value in data set [2] is recorded as “promoted the expansion”. Besides, in data set [2] (normal culture conditions), the “Cells bearing the surface characteristics of IMCs/MDSCs (Gr-1+CD11b+)” value is given as “completely ablated”. The “CD19+CD45R B220+ cellular population from isolated hematopoietic progenitors” value in data set [3] was “mediated the expansion”. Further, in data set [4], the “Lymphocyte population (CD19+CD45R B220+)” value is on record as “appearance” and the “MDSC-like cells (Gr-1+CD11b+)” value is “disappearance”.
